Laboratory results published in patent US5043332A, “Novel 11β-substituted -19-nor-steriods” (priority 1981, dated 1991).

What was measured:
[1] = biological target: T1, Estrogen receptor of uterus of mice (Mus musculus, UniProt P19785); assay: Estrogen receptor binding (displacement of tritiated estradiol)
T1 construct: the uterus were removed and homogenized at 0° C; from tissue; host or cells: mouse uterus, 105,000 g supernatant (immature females 18 to 21 days old)
T1 sequence (P19785 1-599): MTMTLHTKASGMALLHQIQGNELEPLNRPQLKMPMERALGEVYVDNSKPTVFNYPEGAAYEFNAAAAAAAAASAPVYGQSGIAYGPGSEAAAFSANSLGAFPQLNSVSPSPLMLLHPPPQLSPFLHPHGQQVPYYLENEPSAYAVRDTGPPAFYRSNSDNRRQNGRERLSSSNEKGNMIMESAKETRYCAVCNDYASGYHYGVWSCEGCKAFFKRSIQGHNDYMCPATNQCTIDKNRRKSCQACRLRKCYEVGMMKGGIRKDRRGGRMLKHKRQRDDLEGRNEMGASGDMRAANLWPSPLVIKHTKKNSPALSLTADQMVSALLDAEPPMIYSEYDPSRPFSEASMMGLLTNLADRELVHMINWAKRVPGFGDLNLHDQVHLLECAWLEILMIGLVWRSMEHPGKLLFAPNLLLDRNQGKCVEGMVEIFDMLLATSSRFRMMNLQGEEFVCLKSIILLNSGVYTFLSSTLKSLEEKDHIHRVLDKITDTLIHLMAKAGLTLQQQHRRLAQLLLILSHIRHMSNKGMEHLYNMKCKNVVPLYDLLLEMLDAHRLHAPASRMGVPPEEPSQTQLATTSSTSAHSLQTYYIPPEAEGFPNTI
Description: E. Estrogen receptor of uterus of mice
Immature female mice 18 to 21 days old were killed and the uterus were removed and homogenized at 0° C. with a polytetrafluoroethylene-glass Potter in a buffered TS solution consisting of 10 mM, Tris, 0125M Saccharose, HCl for a pH of 7.4 at a rate of 1 g of tissue per 25 ml of TS. The homogenate was then ultracentrigued at 105,000 g for 90 minutes at 0° C. and aliquoits of the resulting […] were incubated at 0° C. for a time (t) with a constant concentration (T) of tritiated estradiol in the presence of increasing concentrations (0 to 1000×10^-9 M) of either cold estradiol or cold test compound. The concentration of tied tritiated estradiol (B) was measured for each incubate by the technique of adsorption on carbon-dextran.
(§1) The calculation of the relative affinity of […] (ARL) was identical for all of the above receptor tests. One traced the following two curves: the percentage of tied tritiated hormone B/T as a function of the logarithm of the cold hormone concentration and B/T as a function of the logarithm of the concentration of the cold test product. One determined the line of the equation. [formula]
(§2) The intersection of the I50 line and the curves permits one to determine the concentrations of the cold hormone of the reference (CH) and the cold test compound (CX) which inhibit by 50% the tieing of tritiated hormone with the receptor. The relative affinity of tieing (ARL) of the test product was determined by the equation: [formula]

[2] = biological target: T2, Mineralcorticoidal receptor of kidneys of the rat (Rattus norvegicus, UniProt P22199); assay: Mineralcorticoidal receptor binding (displacement of tritiated aldosterone)
T2 construct: from tissue; host or cells: rat kidney, 105,000 g supernatant (adrenalectomized male Sprague-Dawley rats)
T2 sequence (P22199 1-981): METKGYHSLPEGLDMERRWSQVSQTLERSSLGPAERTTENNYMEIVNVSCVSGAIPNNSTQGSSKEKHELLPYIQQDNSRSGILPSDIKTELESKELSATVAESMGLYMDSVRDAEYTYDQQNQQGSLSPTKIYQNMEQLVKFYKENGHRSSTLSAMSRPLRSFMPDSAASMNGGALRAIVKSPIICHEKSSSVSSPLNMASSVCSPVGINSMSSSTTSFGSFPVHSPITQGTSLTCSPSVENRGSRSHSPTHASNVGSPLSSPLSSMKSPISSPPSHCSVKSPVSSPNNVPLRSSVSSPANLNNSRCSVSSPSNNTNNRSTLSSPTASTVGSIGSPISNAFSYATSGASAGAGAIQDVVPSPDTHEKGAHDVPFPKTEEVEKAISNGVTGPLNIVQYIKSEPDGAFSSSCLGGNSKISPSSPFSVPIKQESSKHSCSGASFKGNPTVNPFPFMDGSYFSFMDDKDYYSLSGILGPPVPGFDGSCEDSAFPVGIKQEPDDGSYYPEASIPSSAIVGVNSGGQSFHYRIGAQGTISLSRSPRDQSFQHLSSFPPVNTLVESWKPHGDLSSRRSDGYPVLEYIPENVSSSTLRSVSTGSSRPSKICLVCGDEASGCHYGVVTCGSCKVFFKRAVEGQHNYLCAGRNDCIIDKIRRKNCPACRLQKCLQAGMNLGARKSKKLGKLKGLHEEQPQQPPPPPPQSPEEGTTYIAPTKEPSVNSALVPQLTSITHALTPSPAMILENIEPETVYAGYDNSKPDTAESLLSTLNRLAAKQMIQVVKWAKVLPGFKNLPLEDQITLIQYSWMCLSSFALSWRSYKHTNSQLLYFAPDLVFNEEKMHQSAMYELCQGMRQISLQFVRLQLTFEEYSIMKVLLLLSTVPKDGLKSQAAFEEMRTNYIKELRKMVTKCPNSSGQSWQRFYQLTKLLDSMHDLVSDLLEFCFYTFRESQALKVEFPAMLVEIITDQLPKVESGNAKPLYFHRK
Description: A. Mineralcorticoidal receptor of kidneys of the rat
Male Sprague-Dawley EOPS rats weighing 140 to 160 g surrenalectomized 4 to 8 days previously were killed and their kidneys were perfused in situ with 50 ml of a buffer (10 mM of Tris 0.25M of Saccharose and sufficient hydrochloric acid for a pH of 7.4). The kidneys were then removed, decapsulated and homogenized at 0° C. with a polytetrafluoroethylene-glass Potter (1 g of tissue per 3 ml of buffer). The homogenate was centrifuged for 10 minutes at 800 g at 9° C.
After elimination of the fixation of tritiated aldosterone with glucocorticoid receptor, 21-methyl-Δ^1,4,6 -pregnatriene-20-yne-11β,17β-diol-3-one fixed only with the glucocorticoid receptor was added to the supernatant at a final concentration of 10^-6 M. The suprenatant was ultracentrifuged at 105,000 g for 60 minutes and 0° C. and aliquoits of the resulting surnageant were incubated at 0° C. with a constant concentration (T) of tritiated aldosterone in the presence of increasing concentrations (0-2500×10^-9 M) of cold aldosterone or the cold test product. After a time (t) of incubation, the concentration of tied tritiated aldosterone (B) was measured by the technique of adsoprtion on carbon dextran.
as §1, §2

| relative affinity of tieing (ARL), Estrogen ([1]; incubation 2 H at 0° C.) | relative affinity of tieing (ARL), Estrogen ([1]; incubation 5 H (25° C.)) | relative affinity of tieing (ARL), Mineralocorticoid ([2]; incubation 1 H at 0° C.) | relative affinity of tieing (ARL), Mineralocorticoid ([2]; incubation 24 H at 0° C.) | relative affinity of tieing (ARL), Estrogen ([1]; second table, incubation 2 H at 0° C.) | relative affinity of tieing (ARL), Mineralocorticoid ([2]; second table, incubation 24 H at 0° C.) | Structure (SMILES) |
| --- | --- | --- | --- | --- | --- | --- |
| < 0,1 | < 0,1 | < 0,1 | < 0,1 | – | – | CC#C[C@]1(O)CC[C@H]2[C@@H]3CCC4=CC(=O)[C@@H](C)CC4=C3[C@@H](c3ccc(N(C)C)cc3)C[C@@]21C [5 (2β), 2-methyl-11β-(4-dimethylaminophenyl)-17α-(prop-1-ynyl)-Δ^4,9-estradiene-17β-ol-3-one] |
| – | – | – | – | 0 | 0 | C#C[C@]1(O)CC[C@H]2[C@@H]3CCC4=CC(=O)CCC4=C3[C@@H](c3ccc(N(C)C)cc3)C[C@@]21C [Example 32, 11β-[4-(N,N-dimethylamino)-phenyl]-17α-ethynyl-Δ^4,9-estradiene-17β-ol-3-one] |
